Assays:
Type in all cases: biochemical
Human lung tryptase = molecular target: T1, Human lung tryptase; experiment: Human lung tryptase inhibition, chromogenic GPR-pNA substrate
T1 construct: Human lung tryptase purchased from Cortex Biochem (San Leandro, Calif.) was purified further on a Superdex 200 gel-filtration column
Protocol: (§1) Protease inhibition was assayed according to published procedures with minor modifications using various proteases and specific chromogenic peptide p-nitroanilide substrates. Assays were performed in Costar ultra-low cluster 96-well microtiter plate (Costar Corning Corp., Cambridge Mass.). Each protease was incubated with various concentrations of the test compound for 15 min. at 37° C. or as otherwise indicated, in specific assay buffer, and the residual activity was then measured by addition of the substrate. p-Nitroaniline produced by the proteolysis was determined by measuring the change in absorbance at 405 nm on a SpectraMAX 340 plate reader (Molecular devices, Sunnyvale, Calif.).
(§2) 1. The inhibition constant, Ki is calculated from individual data points using the equation for a tight-binding inhibitor (See Beith, “Proteinase Inhibitors-Proceedings of 2nd Int. Res. Conference”, Fritz, et al. eds., New York, p.4463-4469 (1974)):
vi/vo=[((Ki′+[I]+[E]o)^2−4[I]o[E]o)^½(Ki′+[I]o−[E]o)]/2[E]o
where Ki′ is apparent inhibition constant; vi and vo are the inhibited and uninhibited rates, respectively; [I]o and [E]o are the total concentrations of inhibitor and enzyme, respectively.
[note: [E]o is determined by active site titration of enzyme]
(§3) The Ki values are obtained by correcting Ki ′ values for the effect of substrate concentration according to: [formula]
(§4) 2. Other inhibition data (Ki>>[E]o), the Ki is calculated from using the equations for a competitive inhibitor: [formula]
IC50 is determined by fitting the individual inhibition data point to Sigmoid or four-parameter curve-fit equations.
Human lung tryptase purchased from Cortex Biochem (San Leandro, Calif.) was purified further on a Superdex 200 gel-filtration column. The active-site concentration of the enzyme was determined by spectrophotometric titration with 4-nitrophenyl 4′-guanidinobenzoate according to Schwartz, et al., J. Immunol., 114, 2304-2311 (1990). Tryptase activity was measured according to the procedures of Schwartz, et al., J. Biol. Chem., 261, 7372-7379 (1986) (See also, Schwartz, L. B., Methods In Enzymology, 244, 88 (1994)) with minor modifications, using Tosyl-Gly-Pro-Arg-p-nitroanilide (“GPR-pNA”, Sigma Chemical Co., St. Louis, Mo., T-1637) as a chromogenic substrate. The reaction was performed in 50 mM Tris-HCl, pH 8.0, containing 150 mM NaCl and 0.02% Triton X-100 at 37° C. in Costar ultra-low cluster 96-well microtiter plates (Costar Corning Corp., Cambridge, Mass.). The amount of pNA produced by tryptase was determined by measuring the change in absorbance at 405 nm on a SpectraMAX 340 plate reader (Molecular devices, Sunnyvale, Calif.). The Km for the substrate was determined by Lineweaver-Burk analysis from initial velocities of substrate hydrolysis. The inhibition assay was carried out in a total volume of 200 μL. Tryptase (30 μL-final concentration 1 nM) was incubated with various concentrations of sample compound (50 μL) to be tested in the above assay buffer for 5 min. The reaction was started by the addition of substrate GPR-pNA (40 μL-final concentration 320 μM), and the residual activity was measured after 15 min. of incubation. The inhibition constant, Ki, was determined by fitting the inhibition data to a two-site competitive binding equation using data analysis program GraphPad PRISM (GraphPad Software, Inc., San Diego, Calif.).
(§5) The inhibition constant (Ki) of the test compounds against each proteolytic enzyme was determined according to Zitnik et al., Biochem. Biophys. Res. Commun. 232, 687-697 (1997)).

[1] = molecular target: T2, Bovine pancreatic Trypsin (TPCK-treated) (Bos taurus, UniProt P00760); experiment: Bovine pancreatic trypsin inhibition, N-α-Benzoyl-L-Arg-pNA substrate
T2 construct: from tissue; host or cells: bovine pancreas
T2 sequence (P00760 24-246): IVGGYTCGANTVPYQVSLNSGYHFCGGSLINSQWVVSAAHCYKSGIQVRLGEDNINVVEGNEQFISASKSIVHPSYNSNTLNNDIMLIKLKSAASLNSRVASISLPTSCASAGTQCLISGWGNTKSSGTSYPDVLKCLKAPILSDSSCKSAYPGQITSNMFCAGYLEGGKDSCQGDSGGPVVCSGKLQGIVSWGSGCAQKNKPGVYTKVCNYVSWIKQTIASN
Protocol: as §1, §2, §3, §4
C. Bovine Pancreatic Trypsin
Bovine pancreatic Trypsin (TPCK-treated) activity was determined by using N-α-Benzoyl-L-Arg-pNA in 50 mM Tris-HCl, pH 8.2, 20 mM CaCl2 (See Somorin, et al., J. Biochem. 85, 157-162 (1979)).
as §5

Human plasma thrombin = molecular target: T3, Human plasma thrombin (Homo sapiens, UniProt P00734); experiment: Human plasma thrombin inhibition, H-D-Phe-Pip-Arg-pNA substrate
T3 construct: from tissue; host or cells: human plasma
Protocol: as §1, §2, §3, §4
Human plasma thrombin activity was determined by using H-D-Phe-Pip-Arg-pNA in 50 mM Tris-HCl, pH 8.3, 100 mM NaCl, 1% BSA (See Lottenberg, et al., Meth. Enzymol. 80, 341-361 (1981)).
as §5

[2] = tryptase 1 nM, GPR-pNA 320 μM, 50 mM Tris-HCl pH 8.0, 37° C.
[3] = 50 mM Tris-HCl, pH 8.2, 20 mM CaCl2
[4] = 50 mM Tris-HCl, pH 8.3, 100 mM NaCl, 1% BSA

SMILES	Ki (Human lung tryptase; [2]) [µM]	Ki [1, 3] [µM]	Ki (Human plasma thrombin; [4]) [µM]	further results
N=C(N)c1ccc2sc(C(=O)Nc3cccc(N)c3)cc2c1	0.52	14	> 100	–
N=C(N)c1ccc2sc(C(=O)NCc3cccc(N)c3)cc2c1	0.22	9.1	> 100	–
N=C(N)c1ccc2sc(CC(=O)NCc3cccc(N)c3)cc2c1	0.09	6.4	> 100	–
N=C(N)c1ccc2cc(C(=O)Nc3cccc(N)c3)ccc2c1	0.055	0.43	> 100	–
N=C(N)c1ccc2cc(C(=O)NCc3cccc(N)c3)ccc2c1	0.08	1.3	> 100	–
N=C(N)c1ccc2cc(CC(=O)Nc3cccc(N)c3)ccc2c1	1.2	2.1	> 100	–
N=C(N)c1ccc2sc(C(=O)NCCc3ccc(N)cc3)cc2c1	0.17	8.3	> 100	–
N=C(N)c1ccc2sc(C(=O)NCc3ccc(N)cc3)cc2c1	0.44	8.8	> 100	–
N=C(N)c1ccc2cc(C(=O)NCc3ccc(N)cc3)ccc2c1	0.21	0.59	> 100	–
N=C(N)c1ccc2cc(C(=O)NCCc3ccc(N)cc3)ccc2c1	0.16	0.95	> 100	–
N#Cc1ccc2[nH]c(Cc3nc4cc(C(=N)N)ccc4[nH]3)nc2c1	0.1	–	–	–
N=C(N)c1ccc2[nH]c(CC(=O)Nc3ccc4ccccc4c3)nc2c1 [2-Napthyl]	5.2	–	–	–
N=C(N)c1ccc2[nH]c(CC(=O)Nc3ccccn3)nc2c1 [2-Pyridyl]	1.2	–	–	–
N=C(N)c1ccc2[nH]c(CC(=O)NC3CCN(Cc4ccccc4)CC3)nc2c1 [4-Piperidinyl(N-benzyl)]	1.7	–	–	–
N=C(N)c1ccc2[nH]c(CC(=O)Nc3ccc4[nH]ccc4c3)nc2c1 [5-Indole]	0.81	21.8	> 100	–
N=C(N)c1ccc2[nH]c(CC(=O)Nc3ccc4ncccc4c3)nc2c1 [6-Quinoline]	0.34	4.6	> 100	–
N=C(N)c1cccc(NC(=O)Cc2nc3cc(C(=N)N)ccc3[nH]2)c1 [(3-Amidino)Ph]	0.52	2.2	> 100	–
N=C(N)c1ccc2[nH]c(CC(=O)Nc3cccc(N)c3)nc2c1 [(3-Amino)Ph]	0.29	14.2	> 100	–
CS(=O)(=O)Nc1cccc(NC(=O)Cc2nc3cc(C(=N)N)ccc3[nH]2)c1 [(3-N(H)SO2CH3)Ph]	7.7	–	–	–
N=C(N)c1ccc2[nH]c(CC(=O)Nc3cccc(O)c3)nc2c1 [(3-OH)Ph]	0.57	8.7	> 100	–
N=C(N)c1ccc(NC(=O)Cc2nc3cc(C(=N)N)ccc3[nH]2)cc1 [(4-Amidino)Ph]	0.97	1.7	> 100	–
N=C(N)c1ccc2[nH]c(CC(=O)Nc3cccc(N)c3)cc2c1 [drawing 14 Indole 5-carboxamidine n=1 m=0]	0.39	4	> 100	–
N=C(N)c1ccc2[nH]c(CC(=O)Nc3ccc(N)cc3)cc2c1 [drawing 15 Indole 5-carboxamidine n=1 m=0]	0.2	3.8	> 100	–
N=C(N)c1ccc2[nH]c(CC(=O)NCc3ccc(N)cc3)cc2c1 [drawing 15 Indole 5-carboxamidine n=1 m=1]	0.44	3.4	65	–
Cc1cc2cc(CNC(=O)Cc3ccc4cc(C(=N)N)ccc4c3)ccc2[nH]1 [drawing 17 Naphthalene 2,6-substitution n=1]	–	–	–	Ki (Human lung tryptase; the 5th table, unit inferred): 0.01 µM; Ki ([1]; the 5th table, unit inferred): 0.34 µM; Ki (Human plasma thrombin; the 5th table, unit inferred): > 100 µM

Continued, in another order:

Ki (Human lung tryptase; [2]) [µM]	Ki [1, 3] [µM]	Ki (Human plasma thrombin; [4]) [µM]	SMILES	further results
6.4	–	–	CC(=O)Nc1ccc(NC(=O)Cc2nc3cc(C(=N)N)ccc3[nH]2)cc1 [(4-N(H)COCH3)Ph]	–
3.9	–	–	CS(=O)(=O)Nc1ccc(NC(=O)Cc2nc3cc(C(=N)N)ccc3[nH]2)cc1 [(4-N(H)SO2CH3)Ph]	–
2.2	–	–	N=C(N)c1ccc2[nH]c(CC(=O)Nc3ccc(S(N)(=O)=O)cc3)nc2c1 [(4-SO2NH2)Ph]	–
4.7	–	–	N=C(N)c1ccc2[nH]c(CC(=O)NCc3ccncc3)nc2c1 [CH2(4-Pyridyl)]	–
1.3	–	–	N=C(N)c1ccc2[nH]c(CC(=O)NCCc3ccncc3)nc2c1 [CH2CH2(4-Pyridyl)]	–
9.6	–	–	CCCNC(=O)Cc1nc2cc(C(=N)N)ccc2[nH]1 [CH2CH2CH3]	–
7.4	–	–	CCNC(=O)Cc1nc2cc(C(=N)N)ccc2[nH]1 [CH2CH3]	–
0.49	7.5	> 100	N=C(N)c1ccc2[nH]c(CC(=O)NCc3cccc(N)c3)nc2c1 [CH2Ph(3-Amino)]	–
2.5	–	–	N=C(N)c1ccc2[nH]c(CC(=O)NCc3ccc(CN)cc3)nc2c1 [CH2Ph(4-CH2NH2)]	–
42.8	–	–	CNC(=O)Cc1nc2cc(C(=N)N)ccc2[nH]1 [CH3]	–
36.9	–	–	N=C(N)c1ccc2[nH]c(CC(=O)NC3CCCCC3)nc2c1 [Cyclohexyl]	–
31.4	–	–	N=C(N)c1ccc2[nH]c(CC(N)=O)nc2c1 [H]	–
9.5	–	–	N=C(N)c1ccc2[nH]c(CC(=O)Nc3ccccc3)nc2c1 [X = H n = 0]	–
21.8	–	–	N=C(N)c1ccc2[nH]c(CC(=O)NCc3ccccc3)nc2c1 [X = H n = 1]	–
5.5	–	–	N=C(N)c1ccc2[nH]c(CC(=O)NCCc3ccccc3)nc2c1 [X = H n = 2]	–
